Structures can show the parent of a compound that is named as a salt.
What was measured:
[1] = system: motor activity induced by atropine; test: Antagonistic effect against atropine (automex method); assay type: in vivo, ddY-strain male mice
Experimental: (§1) In Tests 1 to 4 given below, ddY-strain male mice (body weight 20-25 g) were used, and the experiments were carried out in a semi-soundproof, constant-temperature room kept at a temperature of 23±1° C. and a humidity of 55±2%. The mice were allowed to take feed and water freely.
Test 4: Antagonistic effect against atropine (automex method)
Each of the test compounds was intraperitoneally administered to mice divided into 6-membered groups, and immediately then, atropine was subcutaneously injected into the mice in a dose of 30 mg/kg. The effect of each test compound on the enhancement of motor activity induced by atropine was examined in accordance with the automex method.

[2] = background statement; cited from earlier work
[3] = background statement; cited from earlier work; remark: listed apart in the source
[4] = system: motor activity enhanced by methamphetamine; test: Antagonistic effect against methamphetamine (automex method); assay type: in vivo, ddY-strain male mice; conditions: for Motor activity (total number of counts): 500 mg/kg i.p. + methamphetamine 3 mg/kg s.c.
Experimental: as §1
Test 2: Antagonistic effect against methamphetamine (automex method)
Mice were used in 5-membered groups. Each of the test compounds was intraperitoneally administered to the mice in a predetermined dose, and immediately then, the mice were subcutaneously injected with methamphetamine in a dose of 3 mg/kg. The action of the test compounds on motor activity enhanced by methamphetamine was examined in accordance with the automex method given above.

[5] = system: sleeping induced by pentobarbital; test: Effect of prolonging the time of sleeping induced by pentobarbital; assay type: in vivo, ddY-strain male mice; conditions: pentobarbital sodium 50 mg/kg s.c.
Experimental: as §1
Test 3: Effect of prolonging the time of sleeping induced by pentobarbital
The effects of the test compounds on sleeping induced by pentobarbital were examined. The disappearance of righting reflex for 5 seconds or more was used as an index of sleeping. Mice were divided into 10-membered groups. Each of the test compounds was intraperitoneally administered to the mice in the doses indicated. Immediately then, pentobarbital sodium salt was subcutaneously injected into the mice in a dose of 50 mg/kg, and the sleeping time was compared with that of a group to which pentobarbital alone was injected (control).

[6] = system: cycloheximide-induced amnesia model; test: Effects on CXM-induced amnesia (step-down retention test); assay type: in vivo, ddY-strain male mice; conditions: for Escape learning latency (mean ± S.E.) / Step-down latency (mean ± S.E.): retention test 24 hours
Experimental: The test animals used were ddY-strain male mice (body weight 30-35 g). The experiment was carried out indoors at about 20° C., and the mice were allowed to take feed and water freely. 2. Effects on memorized behaviors
A device comprised of a floor grid surrounded on four sides by acrylic glass walls each having a lateral dimension of 21 cm and a wooden platform, 4×4×4 cm in size, fixed centrally to the floor grid was placed in a wooden semi-soundproof box having a size of 21×21×40 cm with a 15W electric bulb suspended from its ceiling.
The floor grid consisted of stainless steel rods, 3 mm in diameter, arranged at intervals of 8 mm. An intermittent electric shock (1 Hz, 0.5 sec., 60 V DC) was applied to the grid by an electric impulse apparatus and an isolator.
A mouse was placed in a predetermined direction on the platform. Immediately after the mouse stepped down onto the floor grid (when the mouse's four limbs left the platform), an electric shock was applied to the floor grid, and the intermittent application of the electric shock was continued until the mouse climbed up the platform to escape from the electric shock. The time which elapsed until the mouse stepped down from the platform (SDL, step down latency) and the time which elapsed until the mouse escaped to the platform from the electric shock (ELL, escape learning latency) were measured.
By the same procedure as in the training test, a mouse was placed on the platform, and its step down latency (SDL) was measured. The cut-off time was 300 seconds.
After the mouse stepped down, or the cut-off time elapsed, the mouse was placed on the floor grid at a corner of the device with its head directed in a direction opposite to the platform. An electric shock was applied to the mouse and its escape learning latency (ELL) was measured.
Mice divided into groups each consisting of not less than 20 mice were subjected to the training test, and immediately then subcutaneously injected with CXM (150 mg/kg). Twenty-four hours later, the mice was subjected to the retention test.
Immediately after administration of CXM or application of ECS, a 0.9% normal saline solution of each of the test compounds was intraperitoneally administered to the mice. Separately, a 5% gum arabic solution of CXM was administered to the mice in a control group.

[7] = 500 mg/kg i.p., CXM 150 mg/kg s.c.
[8] = 1000 mg/kg i.p., CXM 150 mg/kg s.c.

CN1[C@@H]2CC[C@H]1C[C@@H](OC(=O)C(CO)c1ccccc1)C2 (stereo partly drawn) [Atropine, atropine]
Motor activity (total number of counts) ([1]; atropine alone, 30 mg/kg, 5 minutes): 59 counts
Motor activity (total number of counts) ([1]; atropine alone, 30 mg/kg, 10 minutes): 233 counts
Motor activity (total number of counts) ([1]; atropine alone, 30 mg/kg, 15 minutes): 425 counts
Motor activity (total number of counts) ([1]; atropine alone, 30 mg/kg, 20 minutes): 620 counts
Motor activity (total number of counts) ([1]; atropine alone, 30 mg/kg, 25 minutes): 806 counts
Motor activity (total number of counts) ([1]; atropine alone, 30 mg/kg, 30 minutes): 964 counts

NCCCC(=O)O [gamma-aminobutyric acid]
transmigration through the blood brain barrier [2]: hardly transmigrates through the blood brain barrier
excretion into urine [3]: easily excreted into urine

CC(C)(CO)C(O)C(=O)NCCCC(=O)O (stereo not drawn) [Ca salt of hopantenic acid, Calcium 4(2,4-dihydroxy3,3-dimethyl-butylamide)butyrate, reference compound]
Motor activity (total number of counts) ([4]; 5 minutes): 26 counts
Motor activity (total number of counts) ([4]; 10 minutes): 55 counts
Motor activity (total number of counts) ([4]; 15 minutes): 94 counts
Motor activity (total number of counts) ([4]; 20 minutes): 144 counts
Motor activity (total number of counts) ([4]; 25 minutes): 273 counts
Motor activity (total number of counts) ([4]; 30 minutes): 408 counts
antagonistic effect against the increase of motor activity induced by methamphetamine ([4]; 500 mg/kg, result in words): scarcely observed
Sleeping time ([5]; 1000 mg/kg i.p.): 57.0 ± 6.7 min
Sleeping time ([5]; 2000 mg/kg i.p.): 67.0 ± 5.9 min
Escape learning latency (mean ± S.E.) [6, 7]: 10.3 ± 0.7 s
Step-down latency (mean ± S.E.) [6, 7]: 122.3 ± 13.0 s
Escape learning latency (mean ± S.E.) [6, 8]: 8.2 ± 1.0 s
Step-down latency (mean ± S.E.) [6, 8]: 187.7 ± 19.7 s
Escape learning latency (mean ± S.E.) ([6]; 1000 mg/kg i.p., without CXM): 5.6 ± 0.8 s
Step-down latency (mean ± S.E.) ([6]; 1000 mg/kg i.p., without CXM): 275.9 ± 9.7 s
memory activating action ([6]; without CXM, vs control group, result in words): did not show memory activating action
Motor activity (total number of counts) ([1]; 600 mg/kg i.p. + atropine 30 mg/kg s.c., 5 minutes): 16 counts
Motor activity (total number of counts) ([1]; 600 mg/kg i.p. + atropine 30 mg/kg s.c., 10 minutes): 16 counts
Motor activity (total number of counts) ([1]; 600 mg/kg i.p. + atropine 30 mg/kg s.c., 15 minutes): 29 counts
Motor activity (total number of counts) ([1]; 600 mg/kg i.p. + atropine 30 mg/kg s.c., 20 minutes): 56 counts
Motor activity (total number of counts) ([1]; 600 mg/kg i.p. + atropine 30 mg/kg s.c., 25 minutes): 88 counts
Motor activity (total number of counts) ([1]; 600 mg/kg i.p. + atropine 30 mg/kg s.c., 30 minutes): 151 counts

From patent US4703061A, “Gamma-aminobutyric acid derivatives, process for production thereof, and use thereof as medicaments” (priority 1984, dated 1987)
